Experimental data as given in US10239830B2, “Benzenesulfonamide upregulators of NPC1 for Neimann-Pick disease and other lysosomal storage disorders” (ICAHN SCHOOL OF MEDICINE AT MOUNT SINAI, priority 2015, dated 2019).

Assays:
Renilla Enzyme = target: T1, Renilla Enzyme (Renilla reniformis, UniProt P27652); test: Biochemical Renilla Luciferase Counter assay
T1 sequence (P27652 1-311): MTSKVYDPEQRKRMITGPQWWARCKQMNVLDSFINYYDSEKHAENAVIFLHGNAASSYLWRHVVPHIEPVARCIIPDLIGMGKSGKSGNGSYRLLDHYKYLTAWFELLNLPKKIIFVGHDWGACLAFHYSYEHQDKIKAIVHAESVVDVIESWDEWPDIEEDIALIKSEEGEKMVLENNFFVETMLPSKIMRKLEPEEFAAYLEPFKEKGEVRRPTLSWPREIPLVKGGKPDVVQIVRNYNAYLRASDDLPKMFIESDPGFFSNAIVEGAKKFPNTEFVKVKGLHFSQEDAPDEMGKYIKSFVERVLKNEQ
Method: Biochemical Renilla Luciferase Counter assay. An orthogonal assay was run to exclude any compounds that promoted renilla luciferase signal by stabilizing the renilla protein. Briefly, 3 μL of 0.01 mM D-Luciferin and 0.01 mM ATP was dispensed into a 1536 well white, solid bottom plate. Through pinning, 23 nL of compound was added; PTC124 (3-[5-(2-Fluorophenyl)-1,2,4-oxadiazol-3-yl]benzoic acid) served as the control. After a 10 min incubation at room temperature, 1 μL of Luciferase was added, after which the plate was immediately read on the ViewLux for a luminescent read-out.

[1] = tested on: NPC1 patient cell fibroblasts; test: Filipin Staining Assay to Detect Free Cholesterol Accumulation in NPC Cells; format: cell-based, human; conditions: filipin fluorescence relative to untreated cells; 1 μM
Method: Filipin Staining Assay to Detect Free Cholesterol Accumulation in NPC Cells. Compounds were evaluated for their effect on the NPC1 cellular phenotype by staining treated NPC1 patient cell fibroblasts with filipin, which recognizes free unesterified cholesterol. Compounds that upregulate the NPC1 promoter were expected to reduce the filipin staining in treated NPC1 fibroblasts compared to untreated NPC1 fibroblasts, indicating clearance of unesterified cholesterol. Conversely, inhibitors of the NPC1 promoter were expected to increase filipin staining in wild-type fibroblasts, thus indicating the emergence of an NPC-like phenotype. Briefly, cells were grown in lipoprotein-deficient medium for 3-4 days, and then the medium was replaced and supplemented with test compound plus 50 μg/mL low-density lipoprotein (LDL). After 24-48 hours, cells were stained with filipin and scored under the 40× magnification filter using the integrated morphometry function in the Metavue program (Molecular Devices). Test compounds that decreased the intensity of filipin fluorescence to less than 50% of untreated cells are considered of particular interest.

NPC1 promoter = test: Confirmation Assay of NPC1 Promoter Activators: Renilla Luciferase (Huh7); format: cell-based, human; conditions: 24 hours
Method: Confirmation Assay of NPC1 Promoter Activators: Renilla Luciferase. The confirmation assay was carried out using an assay in which the NPC1 promoter drives the expression of a different luciferase protein from the one used in the primary screen. The NPC1 promoter was cloned in front of the renilla luciferase reporter gene. NPC1 promoter activation results in renilla luciferase expression. This vector was used to generate Huh7 cell lines stably expressing the NPC1-renilla luciferase vector. These cells were propagated and maintained in medium containing RPMI-1640 supplemented with 10% FBS, 2 mM L-glutamine, and 50 μg/mL penicillin/streptomycin. Cells were plated for assays in OPTI-MEM I reduced-serum medium supplemented with 10% FBS at 1,500 cells/well in 5 μL in 1,536-well white opaque plates and then 23 nL/well of compound in DMSO solution were added through pin transfer. The assay plates were incubated at 37° C. for 24 hours. The Amplite luciferase reporter gene assay kit was purchased from ABD Bioquest and prepared/stored according to manufacturer's recommendations. Luminescence signal was measured in a ViewLux plate reader (Perkin Elmer) after a 10 minute incubation at room temperature.

`COc1ccc(NC(=O)C23CC4CC(CC(C4)C2)C3)cc1S(=O)(=O)Nc1ccc(Br)cc1` [Example 47] was tested, and the “Renilla Enzyme IC50” value (Renilla Enzyme) was “Inactive”, the “% storage at 1 μM” value [1] was 33% and the EC50 (NPC1 promoter) was 2700 nM. For the same compound, the “NPC1-renilla Eff.” value (NPC1 promoter) was 80%.
